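Step 1: Grow cells in 96-well plates. Step 2: Expose to compound for 48 hours at 5 concentrations. Step 3: Interpolate endpoints linearly; if unreached, use highest concentration. GI50: concentration for 50% inhibition of growth.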 Active and inactive are the calls of the source. Cut-off read from the data, not from the text of the source: active = GI50 up to about 1.1 µM and inactive = higher.
What was measured:
Test in all cases: NCI-60 cell line screen, 48 h
BT-549 = test system: BT-549
HL-60 = test system: HL-60
HOP-62 = test system: HOP-62
HT-29 = test system: HT-29
Hs-578T = test system: Hs-578T
IGROV-1 = test system: IGROV-1
K562 = test system: K562
KM12 = test system: KM12
M14 = test system: M14
MDA-MB-231 = test system: MDA-MB-231
NCI-H226 = test system: NCI-H226
NCI-H522 = test system: NCI-H522
PC-3 = test system: PC-3
SF-268 = test system: SF-268
SF-295 = test system: SF-295
SK-MEL-28 = test system: SK-MEL-28
SN12C = test system: SN12C
SW-620 = test system: SW-620
UO-31 = test system: UO-31
SF-539 = test system: SF-539

Measured: GI50

Cc1ncc(COP(=O)(O)O)c(C)c1O
inactive: BT-549 > 100 µM | HL-60 > 100 µM | HOP-62 > 100 µM | HT-29 > 100 µM | Hs-578T > 100 µM | IGROV-1 > 100 µM | K562 > 100 µM | KM12 > 100 µM | M14 > 100 µM | MDA-MB-231 > 100 µM | NCI-H226 > 100 µM | NCI-H522 > 100 µM | PC-3 > 100 µM | SF-268 > 100 µM | SF-295 > 100 µM | SK-MEL-28 > 100 µM | SN12C > 100 µM | SW-620 > 100 µM | UO-31 > 100 µM

CCOC(=O)c1c(NC(=O)c2ccc(Br)cc2)sc2c1CCCC2
inactive: BT-549 > 100 µM | HL-60 > 100 µM | HOP-62 > 100 µM | HT-29 > 100 µM | Hs-578T 75.5 µM | IGROV-1 97.1 µM | K562 > 100 µM | KM12 39.1 µM | M14 > 100 µM | MDA-MB-231 > 100 µM | NCI-H226 > 100 µM | PC-3 > 100 µM | SF-268 > 100 µM | SF-295 > 100 µM | SF-539 > 100 µM | SK-MEL-28 > 100 µM | SN12C > 100 µM | SW-620 > 100 µM | UO-31 > 100 µM

N#Cc1c(C#N)c(SSc2c(C#N)c(C#N)c(N)n2-c2ccccc2)n(-c2ccccc2)c1N
inactive: BT-549 5.57 µM | HOP-62 28.4 µM | HT-29 40.5 µM | Hs-578T 24.7 µM | IGROV-1 28.4 µM | K562 4.38 µM | KM12 25.4 µM | M14 7.69 µM | MDA-MB-231 40.9 µM | NCI-H226 22.3 µM | NCI-H522 3.47 µM | PC-3 20.9 µM | SF-268 27.7 µM | SF-295 24.9 µM | SF-539 92.9 µM | SK-MEL-28 20.3 µM | SN12C 19.7 µM | SW-620 1.77 µM | UO-31 1.91 µM

Oc1ccc(Cl)cc1C1=NC(NCN2CCN(CNC3=NC(c4ccccc4)CC(c4cc(Cl)ccc4O)=N3)CC2)=NC(c2ccccc2)C1 (centres undefined)
inactive: BT-549 52.2 µM | HL-60 28.4 µM | HOP-62 42.2 µM | HT-29 36.5 µM | Hs-578T 55.7 µM | IGROV-1 34.4 µM | K562 36.2 µM | KM12 37.1 µM | M14 58.6 µM | MDA-MB-231 > 100 µM | NCI-H226 53.8 µM | PC-3 39.7 µM | SF-268 32.7 µM | SF-295 32.3 µM | SF-539 72.1 µM | SK-MEL-28 > 100 µM | SN12C 24.7 µM | SW-620 33.1 µM | UO-31 37.3 µM

CC(=O)/C=C(/C=N/O)c1ccccc1
inactive: BT-549 > 100 µM | HOP-62 > 100 µM | HT-29 > 100 µM | Hs-578T > 100 µM | IGROV-1 > 100 µM | K562 > 100 µM | KM12 > 100 µM | M14 > 100 µM | MDA-MB-231 > 100 µM | NCI-H226 > 100 µM | NCI-H522 > 100 µM | PC-3 > 100 µM | SF-268 > 100 µM | SF-295 > 100 µM | SF-539 > 100 µM | SK-MEL-28 > 100 µM | SN12C > 100 µM | SW-620 > 100 µM | UO-31 > 100 µM

Cc1ccc(S(=O)(=O)c2ccsc2NC(=O)C(F)(F)F)cc1
inactive: BT-549 40.3 µM | HOP-62 34.7 µM | HT-29 35.8 µM | Hs-578T 32.7 µM | IGROV-1 62.8 µM | KM12 31.1 µM | M14 43.4 µM | MDA-MB-231 24.5 µM | NCI-H226 39.7 µM | NCI-H522 24.4 µM | PC-3 37.6 µM | SF-268 28.3 µM | SF-295 37.8 µM | SF-539 39.7 µM | SK-MEL-28 93.5 µM | SN12C 25.2 µM | SW-620 57.3 µM | UO-31 28.9 µM

CC1OC(OC2C(O)COC(OC3C(C)OC(OC4C(OC(=O)[C@]56CCC(C)(C)C[C@@H]5C5=CCC7[C@@]8(C)C[C@H](O)[C@H](OC9OC(CO)C(O)C(O)C9O)[C@@](C)(CO)[C@@H]8CC[C@@]7(C)[C@]5(C)CC6)OCC(O)C4O)C(O)C3O)C2O)C(O)C(O)C1O (some centres undefined)
inactive: BT-549 24.1 µM | HOP-62 18.3 µM | HT-29 21 µM | Hs-578T 32 µM | K562 47.9 µM | KM12 35.5 µM | M14 22.8 µM | MDA-MB-231 19.8 µM | NCI-H226 25.1 µM | NCI-H522 46.6 µM | PC-3 18.2 µM | SF-268 27.7 µM | SF-295 23.9 µM | SF-539 22.2 µM | SK-MEL-28 15 µM | SN12C 21.2 µM | SW-620 20.1 µM | UO-31 12.9 µM

CN1CCC/C1=C1/C(=O)N(c2ccccc2)N=C1c1ccc[nH]1
inactive: BT-549 > 100 µM | HL-60 > 100 µM | HOP-62 > 100 µM | Hs-578T > 100 µM | IGROV-1 > 100 µM | K562 > 100 µM | KM12 > 100 µM | M14 > 100 µM | MDA-MB-231 > 100 µM | NCI-H226 > 100 µM | NCI-H522 > 100 µM | PC-3 > 100 µM | SF-268 > 100 µM | SF-295 > 100 µM | SK-MEL-28 > 100 µM | SN12C > 100 µM | SW-620 > 100 µM | UO-31 > 100 µM

O=C(CCc1ccccc1)ON1C(=S)NC(c2ccccc2)(c2ccccc2)C1=S
inactive: BT-549 37.8 µM | HL-60 21.6 µM | HOP-62 30.1 µM | HT-29 25.4 µM | Hs-578T 31.1 µM | IGROV-1 25.9 µM | K562 14.6 µM | KM12 27.4 µM | M14 42.1 µM | MDA-MB-231 51.3 µM | NCI-H226 22 µM | PC-3 23.4 µM | SF-268 28.2 µM | SF-295 42 µM | SF-539 26.4 µM | SK-MEL-28 > 100 µM | SN12C 44.8 µM | SW-620 42.4 µM | UO-31 43.4 µM

CC1=CC(=O)/C(=C/NC(=O)NN)C(=O)O1
inactive: BT-549 > 100 µM | HOP-62 > 100 µM | Hs-578T > 100 µM | IGROV-1 58.5 µM | KM12 > 100 µM | M14 > 100 µM | MDA-MB-231 > 100 µM | NCI-H522 > 100 µM | PC-3 > 100 µM | SF-268 > 100 µM | SF-295 > 100 µM | SF-539 77.8 µM | SK-MEL-28 54.5 µM | SN12C > 100 µM | SW-620 > 100 µM | UO-31 > 100 µM

From ChEMBL document CHEMBL1201862, “PubChem BioAssay data set” (2004)
